From patent US7256176B2, “Methods of modulating β cell function” (Joslin Diabetes Center, Inc., priority 2002, dated 2007)
Positions of bridges follow the written chain, without caps; N, C: chain ends.

Assays:
human MCH-2R = human MCH-2R (Homo sapiens, UniProt Q969V1); conditions: cited from earlier work
[1] = test system: islets isolated from MCH over expressing mice; assay: MCH treatment of islets from MCH over expressing mice (insulin secretion); type: cell-based, mouse; conditions: n=2, control 2.8±0.36
feeding = conditions: administered ICV; cited from earlier work
[2] = test system: islets isolated from C57B1/6J mice; assay: MCH stimulation of insulin secretion from overnight cultured isolated islets; type: cell-based, mouse
MAP kinase = assay: Effect of MCH on MAP kinase activity in islets or clonal β-cells; type: cell-based, mouse; conditions: islets or clonal β-cells treated with 1 μM MCH
From the text: To begin to examine the mechanism of action of MCH in the islets the effect of the peptide on MAP kinase activity was investigated.

rat adipocytes = conditions: cited from earlier work

human MCH-2R, sequence (Q969V1 whole entry): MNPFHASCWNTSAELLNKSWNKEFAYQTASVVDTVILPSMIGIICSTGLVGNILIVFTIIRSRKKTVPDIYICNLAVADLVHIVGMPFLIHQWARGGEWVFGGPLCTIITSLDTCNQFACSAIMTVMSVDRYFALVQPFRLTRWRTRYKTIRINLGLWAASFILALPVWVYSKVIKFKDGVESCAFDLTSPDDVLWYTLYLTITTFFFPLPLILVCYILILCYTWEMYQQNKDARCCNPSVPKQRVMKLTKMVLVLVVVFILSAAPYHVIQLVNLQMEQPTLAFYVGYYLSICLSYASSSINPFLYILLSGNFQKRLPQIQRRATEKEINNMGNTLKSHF

| Substance | activation of receptor compared with full-length human MCH (human MCH-2R) | insulin secretion [1] | feeding (feeding) | insulin secretion ([2]; 100 nM MCH, 30 min incubation, 11.1 mM glucose, n=3, p<0.02 vs control 0.86±0.22) | insulin secretion, dependence on concentration and time ([2]; overnight cultured islets) | effect on MAP kinase levels (MAP kinase) | leptin secretion (rat adipocytes) |
| --- | --- | --- | --- | --- | --- | --- | --- |
| Arg-cyclo(S-S)(Cys-Met-Leu-Gly-Arg-Val-Tyr-Arg-Pro-Cys) | about as effectively as full-length human MCH |  |  |  |  |  |  |
| NH2-Asp-Phe-Asp-Met-Leu-Arg-Cys-Met-Leu-Gly-Arg-Val-Tyr-Arg-Pro-Cys-Trp-Gln-Val-COOH (H-DFDMLRCMLGRVYRPCWQV-OH; disulfide 7-16 (inferred); ends not checked) [MCH, cyclic 19 amino-acid peptide that is an important regulator of feeding behavior] |  | 11.4±0.49 pg/μg protein | acute increase in feeding | 2.1±0.11 % of insulin content | concentration- and time-dependent insulin secretion | No consistent effect | stimulate leptin secretion |
